# Laboratory results: US10517889B2, “Modulators of SMAD7 expression” (Ionis Pharmaceuticals, Inc., priority 2017, dated 2019)
# Strand notation (5' to 3'): a small letter for the sugar, then the base; units joined by * are phosphorothioate-linked, units joined directly phosphodiester-linked; [ ] holds rarer units or linkages, { } end groups; capitals alone tell only the bases. k = constrained ethyl (cEt); [5mC] = 5-methylcytosine; d = 2'-deoxy (DNA)
# System: human SMAD7 mRNA
# Test: Antisense inhibition of human SMAD7 mRNA expression in Hep3B cells by 3-10-3 cEt gapmers, 10,000 nM, electroporation (Example 2)
# Format: cell-based
# Conditions: Hep3B cells, 10,000 nM antisense oligonucleotide, electroporation, approximately 24 hours, RT-PCR primer probe set RTS5062, relative to untreated control cells
# Outline: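 Percent inhibition of SMAD7 mRNA, relative to untreated cells, after ~24 h exposure of electroporated Hep3B cells to 10,000 nM cEt gapmer; levels by qRT-PCR, corrected for total RNA.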
row,Substance,% Inhibition [%]
1,800056 (antisense kT*kG*k[5mC]*dT*dA*dA*dT*dA*dA*dA*d[5mC]*dT*dT*kG*kT*kG) [compound 800056],7
2,799852 (k[5mC]*kA*kA*dG*dT*dG*dT*d[5mC]*d[5mC]*dA*dT*d[5mC]*dA*kA*kG*k[5mC]; antisense) [compound 799852],11
3,798878 (k[5mC]*kT*kG*d[5mC]*dT*dG*d[5mC]*dA*dT*dA*dA*dA*d[5mC]*kT*k[5mC]*kG; antisense) [compound 798878],49
4,799974 (kG*kA*k[5mC]*dT*d[5mC]*d[5mC]*dA*dG*dT*dG*d[5mC]*d[5mC]*dA*kA*kT*k[5mC]; antisense) [compound 799974],23

# Same assay, conditions: Hep3B cells, electroporation with 10,000 nM antisense oligonucleotide, approximately 24 hours, RTS5062, percent inhibition of SMAD7 mRNA relative to untreated control cells
row,Substance,% Inhibition [%]
1,799278 (antisense k[5mC]*k[5mC]*k[5mC]*dG*dT*d[5mC]*dT*dG*dG*dG*d[5mC]*dT*d[5mC]*k[5mC]*kG*kG) [compound 799278],14
2,799810 (antisense k[5mC]*kT*kT*dA*dT*dT*dG*dT*dT*dT*dT*dT*dG*kT*kT*k[5mC]) [compound 799810],14
3,799272 (antisense kA*kT*kT*dA*d[5mC]*dT*d[5mC]*dG*dA*dG*dT*d[5mC]*dA*kG*kG*k[5mC]) [compound 799272],55

# Same assay, conditions: Hep3B cells, electroporation with 10,000 nM antisense oligonucleotide, approximately 24 hours, SMAD7 mRNA by RT-PCR (RTS5062), relative to untreated control cells
row,Substance,% Inhibition [%]
1,799435 (antisense kT*k[5mC]*k[5mC]*dT*d[5mC]*dA*dA*dA*d[5mC]*d[5mC]*dT*dT*dT*k[5mC]*kA*kG) [compound 799435],60
2,798881 (k[5mC]*k[5mC]*kG*dT*d[5mC]*d[5mC]*dA*d[5mC]*dG*dG*d[5mC]*dT*dG*k[5mC]*kT*kG; antisense) [compound 798881],14
3,800060 (antisense k[5mC]*k[5mC]*k[5mC]*d[5mC]*dA*dA*dA*dA*dG*d[5mC]*dT*d[5mC]*d[5mC]*kA*k[5mC]*kA) [compound 800060],5
4,798772 (k[5mC]*kT*kT*d[5mC]*d[5mC]*dG*dA*dG*dG*dA*dA*dT*dG*k[5mC]*k[5mC]*kT; antisense) [compound 798772],48
5,830204 (kG*kT*kA*dT*d[5mC]*d[5mC]*dA*dT*d[5mC]*dA*dA*d[5mC]*dT*kG*k[5mC]*kT; antisense) [compound 830204],59
6,800062 (antisense k[5mC]*k[5mC]*k[5mC]*d[5mC]*dA*dA*dG*d[5mC]*dT*dG*dG*d[5mC]*d[5mC]*kT*kT*k[5mC]) [compound 800062],25
7,830141 (antisense kG*kG*k[5mC]*dA*dT*dT*dA*dG*dA*dG*dA*d[5mC]*d[5mC]*kT*k[5mC]*kA) [compound 830141],58
8,798736 (antisense kG*k[5mC]*kG*d[5mC]*d[5mC]*d[5mC]*d[5mC]*d[5mC]*dG*dG*d[5mC]*d[5mC]*dG*k[5mC]*kG*k[5mC]) [compound 798736],0
9,798784 (kG*kA*kG*dT*d[5mC]*dG*dG*d[5mC]*dT*dA*dA*dG*dG*kT*kG*kA; antisense) [compound 798784],35
10,800020 (kA*kA*k[5mC]*d[5mC]*dT*d[5mC]*dT*dG*dA*dA*dG*dG*d[5mC]*kA*kA*kA; antisense) [compound 800020],21
11,830184 (antisense kA*k[5mC]*kG*dG*dT*dT*dG*d[5mC]*d[5mC]*dT*d[5mC]*dA*dT*k[5mC]*k[5mC]*kT) [compound 830184],48

# Same assay, conditions: Hep3B cells, electroporation with 10,000 nM antisense oligonucleotide, approximately 24 hours, primer probe set RTS5062, relative to untreated control cells
Substance,% inhibition of SMAD7 mRNA expression [%],% Inhibition [%]
798990 (antisense kG*kA*k[5mC]*dA*dA*dG*dT*dG*dA*dA*dA*dT*dG*kA*kT*kG) [compound 798990],39,–
799460 (antisense k[5mC]*kA*kA*d[5mC]*dA*dG*dA*dG*dT*d[5mC]*dT*dT*dT*kG*kA*kA) [compound 799460],29,–
790461 (k[5mC]*k[5mC]*kG*dG*dG*d[5mC]*dA*dG*dG*dA*dG*d[5mC]*dG*kG*k[5mC]*kG; antisense) [compound 790461],42,–
798978 (antisense kT*kT*kT*dG*dG*dT*dG*dG*dT*dG*d[5mC]*dT*dT*kG*kG*kA) [compound 798978],–,25
798953 (antisense kA*kG*k[5mC]*dT*dA*dT*dT*dT*d[5mC]*dT*d[5mC]*dA*dA*kA*kG*kA) [compound 798953],–,17
798779 (kA*kT*kT*d[5mC]*dA*d[5mC]*dA*dG*d[5mC]*dA*dA*d[5mC]*dA*k[5mC]*kA*kG; antisense) [compound 798779],31,–
799097 (antisense kA*kA*kA*d[5mC]*d[5mC]*dT*dG*dA*dT*dG*dT*d[5mC]*dA*k[5mC]*k[5mC]*kA) [compound 799097],–,39
790613 (k[5mC]*kA*kT*dT*dT*dA*dA*dA*d[5mC]*d[5mC]*dT*dT*dT*kG*kT*kA; antisense) [compound 790613],0,–

# Same assay, conditions: Hep3B cells, electroporation, 10,000 nM antisense oligonucleotide, approximately 24 hours, RTS5062, relative to untreated control cells
row,Substance,% inhibition of SMAD7 mRNA expression [%]
1,799619 (kA*k[5mC]*kG*dA*d[5mC]*d[5mC]*dA*dG*dG*d[5mC]*d[5mC]*dT*dG*kT*k[5mC]*kG; antisense) [compound 799619],9
2,799602 (k[5mC]*k[5mC]*kA*dT*dT*dA*dT*dG*dA*dA*dT*dA*d[5mC]*kA*k[5mC]*kT; antisense) [compound 799602],51

# Same assay, conditions: SMAD7 mRNA, Hep3B cells, 10,000 nM antisense oligonucleotide, electroporation, approximately 24 hours, primer probe set RTS5062, relative to untreated control cells
row,Substance,% Inhibition [%]
1,829777 (antisense kG*kA*kG*d[5mC]*dG*dA*dG*dT*dA*dG*dG*dA*d[5mC]*kG*kA*kG) [compound 829777],37
2,790693 (k[5mC]*kA*kA*dA*dG*dT*dA*dT*dA*d[5mC]*d[5mC]*dT*dG*kT*kT*k[5mC]; antisense) [compound 790693],45
3,829740 (antisense k[5mC]*kT*kG*d[5mC]*dT*dA*dA*dG*dG*dA*dG*d[5mC]*dG*kA*kA*k[5mC]) [compound 829740],52
4,772604 (kA*kT*kT*d[5mC]*d[5mC]*d[5mC]*d[5mC]*dT*dG*dA*dG*dG*dT*kA*kG*kA; antisense) [compound 772604],48
5,829763 (antisense kG*kT*kT*dT*d[5mC]*dT*dT*dG*dA*dG*d[5mC]*dA*d[5mC]*k[5mC]*kG*kA) [compound 829763],65
6,790679 (kA*kG*kG*dT*dT*dA*dA*dT*d[5mC]*dA*d[5mC]*dT*dT*k[5mC]*k[5mC]*kT; antisense) [compound 790679],13

# Same assay, conditions: SMAD7 mRNA, Hep3B cells, electroporation with 10,000 nM antisense oligonucleotide, approximately 24 hours, primer probe set RTS5062, relative to untreated control cells
row,Substance,% Inhibition [%]
1,829829 (kT*k[5mC]*kT*dG*dA*dA*dA*dG*d[5mC]*d[5mC]*d[5mC]*d[5mC]*d[5mC]*k[5mC]*kA*kG; antisense) [compound 829829],11
2,829978 (kA*kT*kA*dT*dT*dT*dA*dG*d[5mC]*dT*dG*dT*d[5mC]*kA*kG*kA; antisense) [compound 829978],50
3,829959 (kT*kT*kA*dT*dT*dA*dA*dT*dG*dG*dT*d[5mC]*dT*kG*k[5mC]*kT; antisense) [compound 829959],12
4,829894 (antisense kG*k[5mC]*kT*dG*dA*dT*d[5mC]*dT*dG*d[5mC]*dA*d[5mC]*dG*kG*kT*kA) [compound 829894],41
5,829958 (kG*k[5mC]*kA*d[5mC]*d[5mC]*dT*dT*dG*dT*d[5mC]*dA*d[5mC]*d[5mC]*k[5mC]*kG*kT; antisense) [compound 829958],51
